Measured values: patent US8778966B2, “Quinolinone derivatives as PARP and tank inhibitors” (Janssen Pharmaceutica, NV, priority 2007, dated 2014)

Columns and labels:
HCT116 cells = test: Mitotic arrest assay on HCT116 cells (phospho-histone H3 Ser10); assay type: cell-based, human; conditions: Homo sapiens, HCT-116, HCT116 cells; lowest active dose; read-out: Mitotic arrest HCT116 LAD (converted)
Procedure, shortened: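 Seeded overnight, then compound-treated 6 h at 37 °C (≤0.1% DMSO); fixed, stained with Alexa Fluor 488 anti-phospho-H3 (Ser10) plus Hoechst 33342, imaged on InCell Analyzer 1000. Blank-subtracted signal divided by SD (sigma), triplicate; value is lowest dose giving sigma >5 (LAD).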

Human PARP-1 enzyme = molecular target: T1, Human PARP-1 enzyme (Homo sapiens, UniProt P09874); test: In vitro Scintillation Proximity Assay (SPA) for PARP-1 inhibitory activity; assay type: biochemical; conditions: read-out: in vitro SPA assay PARP-1 pIC50 (converted)
T1 construct: purchased Trevigen
Procedure, shortened: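 SPA assay: nicked-DNA-activated PARP-1 (0.1–0.2 μg/ml) ADP-ribosylates biotinylated histones (2 μg/ml) using [3H]-NAD+, 20 min at RT in Tris pH 8/DTT/MgCl2, stopped with 2 mM NAD+. Blank-subtracted cpm expressed as % control; IC50 by linear interpolation, reported as pIC50 (10−5 to 3×10−9 M tested).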

T1 sequence (P09874 whole entry): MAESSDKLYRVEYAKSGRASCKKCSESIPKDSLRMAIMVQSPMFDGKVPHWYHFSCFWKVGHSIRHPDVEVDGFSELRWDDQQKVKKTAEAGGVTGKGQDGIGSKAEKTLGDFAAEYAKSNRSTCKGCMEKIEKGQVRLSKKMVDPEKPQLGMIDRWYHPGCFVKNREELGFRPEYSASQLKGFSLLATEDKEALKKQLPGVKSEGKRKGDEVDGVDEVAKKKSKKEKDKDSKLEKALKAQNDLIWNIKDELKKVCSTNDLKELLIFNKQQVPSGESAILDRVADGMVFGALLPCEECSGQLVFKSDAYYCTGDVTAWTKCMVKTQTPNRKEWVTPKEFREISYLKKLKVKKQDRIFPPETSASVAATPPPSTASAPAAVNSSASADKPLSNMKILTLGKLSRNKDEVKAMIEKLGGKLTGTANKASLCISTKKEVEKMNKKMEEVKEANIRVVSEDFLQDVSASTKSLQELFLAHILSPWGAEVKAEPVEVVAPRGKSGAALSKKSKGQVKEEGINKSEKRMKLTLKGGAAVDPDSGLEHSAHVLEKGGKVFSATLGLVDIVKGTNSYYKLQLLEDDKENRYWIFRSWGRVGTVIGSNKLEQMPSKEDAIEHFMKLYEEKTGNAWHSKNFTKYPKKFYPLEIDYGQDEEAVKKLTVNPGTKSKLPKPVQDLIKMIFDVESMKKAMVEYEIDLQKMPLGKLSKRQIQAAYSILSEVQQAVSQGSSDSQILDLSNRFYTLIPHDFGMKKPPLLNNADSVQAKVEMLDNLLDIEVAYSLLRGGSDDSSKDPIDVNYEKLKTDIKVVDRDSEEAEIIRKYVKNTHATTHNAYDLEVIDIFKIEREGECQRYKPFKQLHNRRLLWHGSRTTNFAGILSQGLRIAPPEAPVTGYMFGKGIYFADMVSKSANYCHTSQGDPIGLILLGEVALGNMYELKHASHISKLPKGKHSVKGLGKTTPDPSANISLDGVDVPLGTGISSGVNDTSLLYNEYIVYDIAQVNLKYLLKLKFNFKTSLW

SMILES	IC50 (Human PARP-1 enzyme)	minimal effective concentration (HCT116 cells)
CCc1cc2ccc(C(C)(C#N)Cc3nccn3CC)cc2[nH]c1=O (centres unmarked) [Compound 337]	398 nM	1 µM
CCc1cc2ccc(C(C)(C#N)Cc3nc4ccccc4n3C)cc2[nH]c1=O (centres unmarked) [Compound 338]	200 nM	0.3 µM
CCc1cc2ccc(C(C)(C#N)Cc3cnc(OC)nc3Cl)cc2[nH]c1=O (centres unmarked) [Compound 356]	126 nM	0.1 µM
CCc1cc2ccc(C(C)(C#N)Cc3cnc(OC)nc3OC)cc2[nH]c1=O (centres unmarked) [Compound 357]	79.4 nM	0.3 µM
CCc1cc2ccc(C(C)(C#N)Cc3nc(Cl)cc(N(C)C)n3)cc2[nH]c1=O (centres unmarked) [Compound 359]	79.4 nM	0.1 µM
CCc1cc2ccc(C(C)(C#N)Cc3cc(OCCOC)nc(C)n3)cc2[nH]c1=O (centres unmarked) [Compound 363]	158 nM	3 µM
CCc1cc2ccc(C(C)(C#N)Cc3cc(N(C)C)nc(Cl)n3)cc2[nH]c1=O (centres unmarked) [Compound 364]	158 nM	1 µM
CCc1cc2ccc(C(C)(C#N)Cc3cc(OCCOC)nc(Cl)n3)cc2[nH]c1=O (centres unmarked) [Compound 367]	79.4 nM	1 µM
CCc1cc2ccc(C(C)(C#N)Cc3nc(C)cc(C)n3)cc2[nH]c1=O (centres unmarked) [Compound 368]	316 nM	1 µM
CCc1cc2ccc(C(C)(C#N)Cc3nccc(OCCOC)n3)cc2[nH]c1=O (centres unmarked) [Compound 369]	126 nM	1 µM
CCc1cc2ccc(C(C)(C#N)Cc3nc(Cl)cc(OCCOC)n3)cc2[nH]c1=O (centres unmarked) [Compound 370]	200 nM	1 µM
CCc1cc2ccc(C(C)(C#N)Cc3cc(Cl)nc(Cl)c3)cc2[nH]c1=O (centres unmarked) [Compound 372]	100 nM	0.1 µM
CCc1cc2ccc(C(C)(C#N)CC3CCc4ccccc4O3)cc2[nH]c1=O (centres unmarked) [Compound 399]	316 nM	0.3 µM

The next lines start with results.

IC50 (Human PARP-1 enzyme)	SMILES	minimal effective concentration (HCT116 cells)
79.4 nM	CCc1cc2ccc(C(C)(C#N)Cc3cccc(C)n3)cc2[nH]c1=O (centres unmarked) [Compound 343]	0.3 µM
63.1 nM	CCc1cc2ccc(C(C)(C#N)Cc3cccc(Br)n3)cc2[nH]c1=O (centres unmarked) [Compound 344]	0.3 µM
158 nM	CCc1cc2ccc(C(C)(C#N)Cc3cccc(CO)n3)cc2[nH]c1=O (centres unmarked) [Compound 345]	0.3 µM
100 nM	CCc1cc2ccc(C(C)(C#N)Cc3ccc(OC)nc3)cc2[nH]c1=O (centres unmarked) [Compound 352]	1 µM
79.4 nM	CCc1cc2ccc(C(C)(C#N)Cc3cccc(OC)n3)cc2[nH]c1=O (centres unmarked) [Compound 353]	0.3 µM
50.1 nM	CCc1cc2ccc(C(C)(C#N)Cc3cc(OC)nc(OC)n3)cc2[nH]c1=O (centres unmarked) [Compound 358]	0.3 µM
100 nM	CCc1cc2ccc(C(C)(C#N)Cc3nccc(OC)n3)cc2[nH]c1=O (centres unmarked) [Compound 360]	1 µM
126 nM	CCc1cc2ccc(C(C)(C#N)Cc3cc(OC)nc(C)n3)cc2[nH]c1=O (centres unmarked) [Compound 366]	0.3 µM
100 nM	CCc1cc2ccc(C(C)(C#N)Cc3cc(OC)ccn3)cc2[nH]c1=O (centres unmarked) [Compound 373]	1 µM
